Reference: US20190177421A1, “CHIMERIC ANTIGEN RECEPTORS AND METHODS FOR USE” (Poseida Therapeutics, Inc., priority 2016, published 2019)
Read-outs that look alike come from different tables or passages of the source.

Legend:
cells [1] = experiment: Amount of AP1903 needed in vitro for effective signaling of cells; format: cell-based; conditions: calculated with 1600 Da MW
Method: The fixed dose of AP1903 for injection used, for example, may be 0.4 mg/kg intravenously infused over 2 hours. The amount of AP1903 needed in vitro for effective signaling of cells is 10-100 nM (1600 Da MW). This equates to 16-160 μg/L or 0.016-1.6 μg/kg (1.6-160 μg/kg). Doses up to 1 mg/kg were well-tolerated in the Phase I study of AP1903 described above. Therefore, 0.4 mg/kg may be a safe and effective dose of AP1903 for this Phase I study in combination with the therapeutic cells.

[2] = system: human pan T-cells containing the iC9 construct; experiment: iC9 safety switch test: viability by flow cytometry using 7-AAD; format: cell-based; conditions: 24 hours incubation, 0-1000 nM tested, cells with iC9 safety switch
From the text: Human pan T-cells were nucleofected using an Amaxa 4D nucleofector with one of four piggyBac transposons. Modified T cells receiving the “mock” condition were nucleofected with an empty piggyBac transposon. Modified T cells received either a piggyBac transposon containing a therapeutic agent alone (a sequence encoding a CARTyrin) or a piggyBac transposon containing an integrated iC9 sequence and a therapeutic agent (a sequence encoding a CARTyrin).
To test the iC9 safety switch, each of the four modified T cells were incubated for 24 hours with 0, 0.1 nM, 1 nM, 10 nM, 100 nM or 1000 nM AP1903 (an induction agent for […]). Viability was assessed by flow cytometry using 7-aminoactinomycin D (7-AAD), a fluorescent intercalator, as a marker for cells undergoing apoptosis.

cells [3] = conditions: cited from earlier work
[4] = cited from earlier work
human primary T cells = experiment: In vitro CARTyrin surface expression in T cells; format: cell-based; conditions: following lentiviral transduction of human primary T cells
From the text: Characterization further assays correlations with functionality.

tumor = experiment: In vivo tumor challenge study in mice
From the text: FIG. 6 is a schematic diagram depicting an in vivo tumor challenge study timeline using the A08 CARTyrin in mice.
FIG. 6 depicts the treatment schedule for an in vivo study in mice using the A08 CARTyrin. […] FIG. 8 provides a series of photographs further illustrating tumor burden in control animal as well as those treated with P-BCMA-101.

Method for BCMA+ tumor cells: Functionality of CARTyrin-expressing T cells was measured by degranulation against tumor lines.

## CC[C@H](C(=O)N1CCCC[C@H]1C(=O)O[C@H](CCc1ccc(OC)c(OC)c1)c1cccc(OCC(=O)NCCNC(=O)COc2cccc([C@@H](CCc3ccc(OC)c(OC)c3)OC(=O)[C@@H]3CCCCN3C(=O)[C@@H](CC)c3cc(OC)c(OC)c(OC)c3)c2)c1)c1cc(OC)c(OC)c(OC)c1 (relative stereo) [AP1903, 2-Piperidinecarboxylic acid, 1-[(2S)-1-oxo-2-(3,4,5-trimethoxyphenyl)butyl]-, 1,2-ethanediylbis[imino(2-oxo-2,1-ethanediyl)oxy-3,1-phenylene[(1R)-3-(3,4-dimethoxyphenyl)propylidene]]ester, [2S-[1(R*),2R*[S*[S*[1(R*),2R*]]]]]-(9Cl)]
Cells [1]
  amount needed for effective signaling, equated to dose: 0.016 to 1.6 µg/kg
  amount needed for effective signaling, equated to mass concentration: 16 to 160 µg/L
[2]
  concentration at which apoptosis is induced: ≤ 0.1 nM
Cells [3]
  amount needed in vitro for effective signaling of cells: 10 to 100 nM
[4]; 0.5 hours post-dose
  plasma level as % of maximal concentration: approximately 18%
[4]; 2 hours post-dose
  plasma level as % of maximal concentration: ~7%
[4]; 10 hours post-dose
  plasma level as % of maximal concentration: ~1%
[4]; Phase I study, IV
  well-tolerated doses: up to 1 mg/kg
[4]; single doses infused IV over 2 hours, 0.01-1.0 mg/kg dose range, plasma
  mean Cmax: 10 to 1275 ng/mL

## A08 CARTyrin: anti-BCMA CARTyrin (CAR comprising a Centyrin), SEQ ID NO: 21; P-BCMA-101 encodes the A08 anti-BCMA CARTyrin
Human primary T cells
  surface expression: high levels of surface expression
tumor; day 21
  tumor burden assessed by M-protein abundance: no detectable M-protein
tumor; day 21, listed as P-BCMA-101
  tumor burden assessed by M-protein abundance: not detectable
tumor; photographs
  tumor burden compared to controls: reduce tumor burden
tumor; to day 21
  survival: 100%
BCMA+ tumor cells
  cytotoxic function (e.g. proliferation): strong cytotoxic function
